In general, half-life refers to how long it takes for the measured level to halve. Low values mean fast loss, high ones slow loss.

Each structure is given as a SMILES string. “Also recorded” adds a separate entry of the source. Numbered stars: 1 amine (or outer) side, 2 acyl side, 3 side chain; on linkers, the order of the positions; unused ones are H or OH. Side chains are listed from the residue outwards. Peptide text beside a SMILES is read from it. * marks the point of attachment. C18 diacid = O=C(O)CCCCCCCCCCCCCCCCC(=O)*; γGlu = O=C(O)[C@H](CCC(=O)[*:2])N[*:1]; Fumaroyl = O=C(O)/C=C/C(=O)*; Lauroyl = CCCCCCCCCCCC(=O)*; AEEA = NCCOCCOCC(=O)O

The target in data set [1] is T1, human ETA receptor (Homo sapiens, UniProt P25101).
T1 construct: expressed in transfected cells; host or cells: 293T-17 cells, transient transfection
T1 sequence (P25101 21-427): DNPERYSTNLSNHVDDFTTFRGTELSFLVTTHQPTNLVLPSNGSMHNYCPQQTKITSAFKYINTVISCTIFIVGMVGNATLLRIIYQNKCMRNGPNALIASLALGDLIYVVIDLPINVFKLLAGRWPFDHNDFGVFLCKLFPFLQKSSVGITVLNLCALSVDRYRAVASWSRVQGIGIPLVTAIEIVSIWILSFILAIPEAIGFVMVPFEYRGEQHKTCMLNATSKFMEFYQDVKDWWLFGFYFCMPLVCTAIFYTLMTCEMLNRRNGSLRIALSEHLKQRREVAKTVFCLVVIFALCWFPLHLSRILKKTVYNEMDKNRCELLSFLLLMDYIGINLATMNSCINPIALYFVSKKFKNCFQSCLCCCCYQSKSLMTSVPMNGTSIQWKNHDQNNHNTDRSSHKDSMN
Kind of data set: Selectivity of polypeptides on human ETA receptor (IP-One Gq kit, % of positive control ET1). The class given is cell-based. To be noted: read-out: hETAR agonist activity, percentage of activity relative to ET1. The essentials: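 293T-17 cells transiently transfected with human ETA receptor (48 h), 30,000 cells/well exposed to polypeptides for 1 h at 37°C; IP1 accumulation by HTRF (665/620 nm ratio). Activity given as % of ET1 at the same concentration after PBS-control subtraction.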

Data set [2] is described as follows: in vivo. The settings on record: male, SD, rat, in vivo, iv. As for the experimental part: (§1) In an experiment about acute toxicity of intravenous administration, male SD rats weighing 200-230 g were dosed in a range between 480 µg/Kg and 30 µg/Kg via tail vein injection in a descending order of dosage. […] Toxic response and mortality of the rats were preliminarily observed, and time of death and doses without mortality of the rats were recorded. The level of acute toxicity of the polypeptides was preliminarily determined based on the doses without mortality.

Data set [3] deals with male SD rats. Kind of data set: in vivo. To be noted: for Observations of Animal Status: one animal per row, observed 24 hours. The protocol:
as §1

The nature of data set [4]: Determination of half-lives of polypeptides (plasma, LC-MS). To be noted: for half-life: C57 BL/6, mouse, plasma, iv.
Where [5] appears, read: intravenous (tail vein) 120 µg/Kg.
Setting [6] is: intravenous (tail vein) 240 µg/Kg.
Setting [7] is: intravenous (tail vein) 480 µg/Kg.
The mark [8] stands for this setting: intravenous (tail vein) 360 µg/Kg.

For the molecule `CCCCCCCCCCCC(=O)N[C@@H](CCC(=O)O)C(=O)NCCOCCOCC(=O)NCCCC[C@H](NC(=O)[C@H](Cc1c[nH]cn1)NC(=O)[C@H](C)NC(=O)[C@H](Cc1ccccc1)NC(=O)[C@H](Cc1ccc(O)cc1)NC(=O)[C@@H](NC(=O)[C@H](C)NC(=O)[C@H](CCC(=O)O)NC(=O)[C@H](CCC(=O)O)NC(=O)[C@H](CC(=O)O)NC(=O)/C=C/C(=O)O)C(C)C)C(=O)N[C@@H](CC(=O)O)C(=O)N[C@H](C(=O)N[C@H](C(=O)N[C@@H](Cc1c[nH]c2ccccc12)C(=O)O)[C@@H](C)CC)C(C)C` [BX-238] (Fumaroyl-DEEAVYFAHK([AEEA-Glu-Lauroyl])DVIW-OH), the activation at 10 µM in data set [1] was -4.74%. For the same molecule, the activation at 100 µM in data set [1] was -5.07%. In data set [2], this molecule came in with an MTD at 24 h of 0.03 mg/kg. Besides, the “Observations of Animal Status” value in data set [3] (intravenous (tail vein) 30 µg/Kg) is “Breathing speeded up at 53 minutes, showed no willingness to move at 1.2 hours; found dead the next morning (estimated to have died during the night); also recorded: Breathing speeded up at 50 minutes, showed no willingness to move at 1.2 hours; found dead the next morning (estimated to have died during the night)”; in data set [3] (intravenous (tail vein) 60 µg/Kg), “Developed rapid breathing at 40-45 minutes; died at 1 hour”; in data set [3] (setting [5]), “Developed rapid breathing at 5 minutes, the eyes turned pale and purple at 14 minutes; died at 16 minutes”; in data set [3] (setting [6]), “Developed abdominal breathing at 5-6 minutes, developed rapid breathing and collapsed at 9 minutes; died at 11 minutes”. Further, in data set [4], the half-life was determined as 53 min.
For the molecule `CC[C@H](C)[C@H](NC(=O)[C@H](CC(=O)O)NC(=O)[C@H](CC(C)C)NC(=O)[C@H](Cc1c[nH]cn1)NC(=O)[C@H](C)NC(=O)[C@H](Cc1ccccc1)NC(=O)[C@H](Cc1ccc(O)cc1)NC(=O)[C@@H](NC(=O)[C@H](C)NC(=O)[C@H](CCC(=O)O)NC(=O)[C@H](CCC(=O)O)NC(=O)[C@H](CCCCNC(=O)COCCOCCNC(=O)COCCOCCNC(=O)CC[C@H](NC(=O)CCCCCCCCCCCCCCCCC(=O)O)C(=O)O)NC(=O)/C=C/C(=O)O)C(C)C)C(=O)N[C@H](C(=O)N[C@@H](Cc1c[nH]c2ccccc12)C(=O)O)[C@@H](C)CC` [BX-253] (Fumaroyl-K([AEEA-AEEA-γGlu-C18 diacid])EEAVYFAHLDIIW-OH), in data set [1], the activation at 10 µM was -12.9% and the activation at 100 µM was -9.03%. Also, the MTD at 24 h in data set [2] was 0.48 mg/kg. For the same molecule, the “Observations of Animal Status” value in data set [3] (setting [6]) was “No abnormalities”. Further, the “Observations of Animal Status” value in data set [3] (setting [7]) is given as “No abnormalities”. Besides, in data set [3] (male SD rats, tail vein injection), the “acute toxicity of intravenous administration (comparison among polypeptides)” value was “lowest acute toxicity”. Besides, the half-life in data set [4] stood at 63 min. In addition, the “AUClast 0-30 min” value in data set [4] (C57 BL/6 mice, i.v., dosage per compound 0.48, 0.96 or 1 mpk) was 3989 ng·h/mL.
Consider `CC[C@H](C)[C@H](NC(=O)[C@H](CC(=O)O)NC(=O)[C@H](CC(C)C)NC(=O)[C@H](Cc1c[nH]cn1)NC(=O)[C@H](C)NC(=O)[C@H](Cc1ccccc1)NC(=O)[C@H](Cc1ccc(O)cc1)NC(=O)[C@@H](NC(=O)[C@H](C)NC(=O)[C@H](CCC(=O)O)NC(=O)[C@H](CCCCNC(=O)COCCOCCNC(=O)COCCOCCNC(=O)CC[C@H](NC(=O)CCCCCCCCCCCCCCCCC(=O)O)C(=O)O)NC(=O)[C@H](CC(=O)O)NC(=O)/C=C/C(=O)O)C(C)C)C(=O)N[C@H](C(=O)N[C@@H](Cc1c[nH]c2ccccc12)C(=O)O)[C@@H](C)CC` [BX-254] (Fumaroyl-DK([AEEA-AEEA-γGlu-C18 diacid])EAVYFAHLDIIW-OH), for which the MTD at 24 h in data set [2] worked out at 0.12 mg/kg. The “Observations of Animal Status” value was “No obvious abnormalities; also recorded: Developed rapid breathing, the limbs turned purple, developed breathing depression, and limbs moved like swimming at 15 minutes after administration; then died at 20 minutes after administration; also recorded: Developed rapid breathing, the limbs turned purple, and had weak limbs at 14 minutes after administration; died of breathing depression at 21 minutes after administration” in data set [3] (setting [6]); “The body turned purple at 16 minutes after administration; died at 26 minutes after administration” in data set [3] (setting [8]); “The body turned purple at 22 minutes after administration; died at 25 minutes after administration” in data set [3] (setting [7]).
`CC[C@H](C)[C@H](NC(=O)[C@H](CC(=O)O)NC(=O)[C@H](CC(C)C)NC(=O)[C@H](Cc1c[nH]cn1)NC(=O)[C@H](C)NC(=O)[C@H](Cc1ccccc1)NC(=O)[C@H](Cc1ccc(O)cc1)NC(=O)[C@@H](NC(=O)[C@H](C)NC(=O)[C@H](CCC(=O)O)NC(=O)[C@H](CCC(=O)O)NC(=O)[C@H](CC(=O)O)NC(=O)[C@H](CC(=O)O)NC(=O)COCCOCCNC(=O)COCCOCCNC(=O)CC[C@H](NC(=O)CCCCCCCCCCCCCCCCC(=O)O)C(=O)O)C(C)C)C(=O)N[C@H](C(=O)N[C@@H](Cc1c[nH]c2ccccc12)C(=O)O)[C@@H](C)CC` [BX-255] ({C18 diacid-γGlu-AEEA-AEEA}-DDEEAVYFAHLDIIW-OH) displayed an MTD at 24 h in data set [2] of 0.12 mg/kg. For the same molecule, the “Observations of Animal Status” value in data set [3] (setting [5]) was “No obvious adverse reactions in the first 1 hour; breathing became slightly faster at nearly 2 hours; was in good condition and recovered when observed the next day; also recorded: Showed no willingness to move at 9 minutes; recovered at 1 hour and 10 minutes; also recorded: Lay still and showed no willingness to move at 12 minutes; became active at 17 minutes; signs of pain were observed in the animal through pupil observation; no pain at 28 minutes; also recorded: Developed difficulty in breathing at 17 minutes, recovered to normal in about 10 seconds; signs of pain were observed in the animal through pupil observation; no pain at 28 minutes”; in data set [3] (setting [6]) it was “No obvious reaction in the first 27 minutes after administration; breathing speeded up at 27 minutes; died at 49 minutes after administration; also recorded: No obvious reaction in the first 24 minutes after administration; breathing speeded up at 27 minutes; died at 43 minutes after administration”; in data set [3] (setting [8]), “The body turned purple at 12 minutes after administration; died at 22 minutes after administration”; in data set [3] (setting [7]), “The body turned purple at 23 minutes after administration; died at 29 minutes after administration”.

Values taken from patent EP4702986A1, “POLYPEPTIDE AND USE THEREOF” (Biocells (Beijing) Biotech Co., Ltd., priority 2023, dated 2024).
